Measured values: patent US12552753B2, “Methods and compositions for targeting Tregs using CCR8 inhibitors” (Nanjing Immunophage Biomedical Co., Ltd., priority 2020, dated 2026)
Structures can show the parent of a compound that is named as a salt.

target: CCR8 (Homo sapiens, UniProt P51685); assay: Tango assay (Tango-CCR8-Gal4-CHO-K1 cells, CCL1-stimulated, ONE-Glo luminescence); details: Tango Assay IC50, Inhibition of CCR8 Tango cell in vitro
Sequence (P51685 whole entry, the tested form may be a part): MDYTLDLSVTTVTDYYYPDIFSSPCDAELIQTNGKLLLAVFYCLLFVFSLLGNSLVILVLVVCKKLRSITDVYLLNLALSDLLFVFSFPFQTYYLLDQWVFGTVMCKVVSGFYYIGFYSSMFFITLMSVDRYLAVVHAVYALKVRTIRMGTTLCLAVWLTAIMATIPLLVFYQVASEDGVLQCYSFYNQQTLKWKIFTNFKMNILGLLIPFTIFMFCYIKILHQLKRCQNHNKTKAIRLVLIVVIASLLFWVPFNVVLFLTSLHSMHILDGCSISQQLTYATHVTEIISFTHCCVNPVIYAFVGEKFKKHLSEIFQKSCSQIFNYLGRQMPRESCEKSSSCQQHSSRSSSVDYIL

Row | Compound | IC50 [nM]
1 | Cc1ccccc1C(=O)Nc1ccc(S(=O)(=O)NC(C)C2CC3CCC2CC3)c(C)c1C (centres unmarked) [Compound 182, N-(4-(N-(1-(bicyclo[2.2.2]octan-2-yl)ethyl)sulfamoyl)-2,3-dimethylphenyl)-2-methylbenzamide] | 61
2 | COc1cc(S(=O)(=O)NC(C)C2CC3CCC2CC3)c(OC)cc1NC(=O)c1ccccc1C (centres unmarked) [Compound 183, N-(4-(N-(1-(bicyclo[2.2.2]octan-2-yl)ethyl)sulfamoyl)-2,5-dimethoxyphenyl)-2-methylbenzamide] | > 10000
3 | COc1cc(NC(=O)c2ccccc2C)c(C)cc1S(=O)(=O)NC(C)C1CC2CCC1CC2 (centres unmarked) [Compound 184, N-(4-(N-(1-(bicyclo[2.2.2]octan-2-yl)ethyl)sulfamoyl)-5-methoxy-2-methylphenyl)-2-methylbenzamide] | 16
4 | Cc1ccccc1C(=O)Nc1ccc(S(=O)(=O)N[C@H](C)C2CCN(C(=O)OC(C)(C)C)CC2)cc1C(F)(F)F [Compound 185, (R)-tert-butyl 4-(1-(4-(2-methylbenzamido)-3-(trifluoromethyl)phenyl-sulfonamido)ethyl)piper-idine-1-carboxylate] | 673
5 | Cc1ccccc1C(=O)Nc1ccc(S(=O)(=O)N[C@H](C)C2CCNCC2)cc1C(F)(F)F [Compound 186A, (R)-2-methyl-N-(4-(N-(1-(piperidin-4-yl)ethyl)sulfamoyl)-2-(trifluoromethyl)phenyl) benzamide hydrochloride] | 182
6 | Cc1ccccc1C(=O)Nc1cc(C)c(S(=O)(=O)N[C@H](C)C2CCNCC2)cc1Cl [Compound 187A, (R)-N-(2-chloro-5-methyl-4-(N-(1-(piperidin-4-yl)ethyl)sulfamoyl)phen-yl)-2-methylbenzamide hydrochloride] | 6.3
7 | Cc1ccccc1C(=O)Nc1ccc(S(=O)(=O)N[C@H](C)C2CCN(C(=O)OC(C)(C)C)CC2)c(C(F)(F)F)c1 [Compound 188, (R)-tert-butyl 4-(1-(4-(2-methylbenzamido)-2-(trifluoromethyl)phenyl-sulfonamido)ethyl)piper-idine-1-carboxylate] | 302
8 | Cc1ccccc1C(=O)Nc1ccc(S(=O)(=O)N[C@H](C)C2CCNCC2)c(C(F)(F)F)c1 [Compound 189A, (R)-2-methyl-N-(4-(N-(1-(piperidin-4-yl)ethyl)sulfamoyl)-3-(trifluoromethyl)phenyl) benzamide hydrochloride] | > 10000
9 | Cc1ccccc1C(=O)Nc1ccc(S(=O)(=O)N[C@H](C)C2CCNCC2)cc1F [Compound 190A, (R)-N-(2-fluoro-4-(N-(1-(piperidin-4-yl)ethyl)sulfamoyl)phen-yl)-2-methylbenzmaide hydrochloride] | 58
10 | Cc1ccccc1C(=O)Nc1ccc(S(=O)(=O)N[C@H](C)C2CCN(C(=O)OC(C)(C)C)CC2)cc1Br [Compound 191, (R)-tert-butyl 4-(1-(3-bromo-4-(2-methylbenzamido)phen-ylsulfonamido)ethyl)pi-peridine-1-carboxylate] | > 10000
11 | Cc1ccccc1C(=O)Nc1ccc(S(=O)(=O)N[C@H](C)C2CCNCC2)cc1Br [Compound 192A, (R)-N-(2-bromo-4-(N-(1-(piperidin-4-yl)ethyl)sulfamoyl)phen-yl)-2-methylbenzamide hydrochloride] | 26
12 | Cc1ccccc1C(=O)Nc1ccc(S(=O)(=O)N[C@H](C)C2CCN(C(=O)OC(C)(C)C)CC2)cc1C#N [Compound 193, (R)-tert-butyl 4-(1-(3-cyano-4-(2-methylbenzamido)phenylsulfonamido)ethyl) piperidine-1-carboxylate] | > 10000
13 | Cc1ccccc1C(=O)Nc1ccc(S(=O)(=O)N[C@H](C)C2CCNCC2)cc1C(N)=O [Compound 194, (R)-N-(2-carbamoyl-4-(N-(1-(piperidin-4-yl)ethyl)sulfamoyl)phenyl)-2-methylbenzamide] | > 10000
14 | Cc1ccccc1C(=O)Nc1ccc(S(=O)(=O)N[C@H](C)C2CCNCC2)cc1C#N [Compound 195, (R)-N-(2-cyano-4-(N-(1-(piperidin-4-yl)ethyl)sulfamoyl)phenyl)-2-methylbenzamide] | 23
15 | CCc1cc(S(=O)(=O)N[C@H](C)C2CCNCC2)ccc1NC(=O)c1ccccc1C [Compound 196, (R)-N-(2-ethyl-4-(N-(1-(piperidin-4-yl)ethyl)sulfamoyl)phenyl)-2-methylbenzamide] | 18
16 | Cc1ccccc1C(=O)Nc1ccc(S(=O)(=O)N[C@H](C)C2CCNCC2)cc1C(C)C [Compound 197A, (R)-N-(2-isopropyl-4-(N-(1-(piperidin-4-yl)ethyl)sulfamoyl)phenyl)-2-methylbenzamide hydrochloride] | 115
17 | Cc1ccccc1C(=O)Nc1ccc(S(=O)(=O)N[C@H](C)C2CCNCC2)cc1C1CC1 [Compound 198, (R)-N-(2-cyclopropyl-4-(N-(1-(piperidin-4-yl)ethyl)sulfamoyl)phenyl)-2-methylbenzamide] | 26
18 | Cc1ccccc1C(=O)Nc1ncc(S(=O)(=O)N[C@H](C)C2CCNCC2)cc1C [Compound 199A, (R)-2-methyl-N-(3-methyl-5-(N-(1-(piperidin-4-yl)ethyl)sulfamoyl)pyridin-2-yl)benzamide hydrochloride] | 438
19 | Cc1cc(S(=O)(=O)N[C@H](C)C2CCN(C(C)C)CC2)ccc1NC(=O)c1ccccc1C [Compound 200, (R)-N-(4-(N-(1-(1-isopropylpiperidin-4-yl)ethyl)sulfamoyl)-2-methylphenyl)-2-methylbenzamide] | 15
20 | COCCN1CCC([C@@H](C)NS(=O)(=O)c2ccc(NC(=O)c3ccccc3C)c(C)c2)CC1 [Compound 202, (R)-N-(4-(N-(1-(1-(2-methoxyethyl)piperidin-4-yl)ethyl)sulfamoyl)-2-methylphenyl)-2-methylbenzamide] | 60
21 | Cc1cc(S(=O)(=O)N[C@H](C)C2CCN(CCO)CC2)ccc1NC(=O)c1ccccc1C [Compound 205, (R)-N-(4-(N-(1-(1-(2-hydroxyethyl)piperidin-4-yl)ethyl)sulfamoyl)-2-methylphenyl)-2-methylbenzamide] | 41
22 | Cc1cc(S(=O)(=O)N[C@H](C)C2CCN(CC(F)(F)F)CC2)ccc1NC(=O)c1ccccc1C [Compound 206, (R)-2-methyl-N-(2-methyl-4-(N-(1-(1-(2,2,2-trifluoroethyl)piperidin-4-yl)ethyl)sulfamoyl)phenyl)benzamide] | 61
23 | Cc1cc(S(=O)(=O)N[C@H](C)C2CCNCC2)ccc1NC(=O)Cc1ccccc1 [Compound 207A, (R)-N-(2-methyl-4-(N-(1-(piperidin-4-yl)ethyl)sulfamoyl)phenyl)-2-phenylacetamide hydrochloride] | 40
24 | Cc1cc(S(=O)(=O)N[C@H](C)C2CCNCC2)ccc1NC(=O)C1CCCCC1 [Compound 208A, (R)-N-(2-methyl-4-(N-(1-(piperidin-4-yl)ethyl)sulfamoyl)phenyl) cyclohexanecarboxamide hydrochloride] | 55
25 | Cc1cc(S(=O)(=O)N[C@H](C)C2CCNCC2)ccc1NC(=O)C(C)(C)C [Compound 209A, (R)-N-(2-methyl-4-(N-(1-(piperidin-4-yl)ethyl)sulfamoyl)phenyl)pivalamide hydrochloride] | 1100
26 | Cc1cc(S(=O)(=O)N[C@H](C)C2CCNCC2)ccc1NC(=O)c1cccs1 [Compound 210A, (R)-N-(2-methyl-4-(N-(1-(piperidin-4-yl)ethyl)sulfamoyl)phenyl)thiophene-2-carboxamide hydrochloride] | 161
